Results on one compound are retold here after patent US20090233848A1, “Pea15 as a Tumor Suppressor Gene” (priority 2004, published 2009).

The experiment deals with MDA-MB-361 tumor xenografts. The experiment can be described thus: Tumor growth in HER2-overexpressing MDA-MB-361 breast cancer xenograft model. In kind it is in vivo, nude mice. To be noted: 20 μg DNA; paclitaxel 15 mg/kg i.p.; compared with LPD-Luciferase.

Procedure: Female nude mice were inoculated with HER2-overexpressing MDA-MB-361 cells in the mammary fat pad. After the formation of 8-10 tumors per group (5 animals per group, -2 tumors per animal), mice were given one of the following treatments: naked E1A DNA (20 μg DNA, light circles), vehicle only (small squares), LPD-luciferase (20 μg DNA, triangles), LPD-E1A (20 μg DNA, dark circles), paclitaxel (15 mg/kg, light triangles), or LPD-E1A (20 μg DNA) plus paclitaxel (15 mg/kg) (large squares). The tumor growth ratio was determined by comparing the size of the treated tumors with the size of the original tumor before any treatment. The error bars indicate s.e.m.

For `CC(=O)O[C@H]1C(=O)[C@@]2(C)[C@H]([C@H](OC(=O)c3ccccc3)[C@]3(O)C[C@H](OC(=O)[C@H](O)[C@@H](NC(=O)c4ccccc4)c4ccccc4)C(C)=C1C3(C)C)[C@]1(OC(C)=O)CO[C@@H]1C[C@@H]2O` [paclitaxel], the tumor growth entry was “decreased tumor growth”.
